According to patent publication EP4635500A1, “THERAPEUTIC AGENT FOR BACTERIAL INFECTION” (Sumitomo Pharma Co., Ltd., priority 2022, dated 2024):
Values after ≈ are worked out from the molar mass of the structure shown. Read-outs that look alike come from different tables or passages of the source.

Legend:
Type in all cases: cell-based
[1] = test system: 53 CRE and CPE strains; assay: MICrange, MIC50, MIC80, MIC90 for 53 bacterial isolates (Example 5, Table 5); settings: 53 bacterial isolates
[2] = test system: CRE and CPE strains; assay: MIC, broth microdilution, standard strains and Japanese clinical isolates (Example 5, Table 4 continued; organism of each KUB strain not given)
[3] = test system: Providencia rettgeri; assay: MIC, broth microdilution, standard strains and Japanese clinical isolates (Example 5, Table 4); settings: ATCCBAA2525; KUB4010 Providencia rettgeri ATCC BAA-2525, OXA-181
[4] = test system: P. aeruginosa; assay: MIC, broth microdilution, CDC/FDA Antibiotic Resistance Isolate Bank (Example 7, Tables 10, 15); settings: for MIC: Pseudomonas aeruginosa, read-out: MIC
[5] = test system: Escherichia coli; assay: MIC, broth microdilution, standard strains and Japanese clinical isolates (Example 5, Table 4); settings: ATCCBAA2452; KUB4005 Escherichia coli ATCC BAA-2452, NDM-1
[6] = test system: Klebsiella pneumoniae; assay: as above; settings: IMP-6

Compound `C[C@H]1[C@H](NC(=O)/C(=N\OC(C)(C)C(=O)O)c2csc(N)n2)C(=O)N1S(=O)(=O)O` [Aztreonam, aztreonam] has an MIC80 ([1]; read-out: MIC80) greater than 64 µg/mL, an MIC90 ([1]; read-out: MIC90) greater than 64 µg/mL and an MIC ([2]; strain KUB3149, carbapenemase gene NDM-1, read-out: MIC) of 8 µg/mL (≈ 18.4 µM). For the same compound, the MIC ([2]; strain KUB3150, carbapenemase gene OXA-48, read-out: MIC) was 8 µg/mL (≈ 18.4 µM), the MIC ([2]; strain KUB3151, carbapenemase gene IMP-1, read-out: MIC) was 0.25 µg/mL (≈ 0.574 µM) and the MIC ([2]; strain KUB3158, carbapenemase gene OXA-48) was 0.12 µg/mL (≈ 0.276 µM). It also gave an MIC ([2]; strain KUB3163, carbapenemase gene IMP-1) of 0.12 µg/mL (≈ 0.276 µM), an MIC ([2]; strain KUB3164, carbapenemase gene IMP-6) of 16 µg/mL (≈ 36.7 µM) and an MIC ([2]; strain KUB3165, carbapenemase gene IMP-34) of no more than 0.03 µg/mL. For the same compound, the MIC ([2]; strain KUB3166, carbapenemase gene IMP-1) was 4 µg/mL (≈ 9.19 µM), the MIC ([2]; strain KUB3628, carbapenemase gene IMP-1) was 0.06 µg/mL (≈ 0.138 µM) and the MIC [3] was 1 µg/mL (≈ 2.3 µM). For the same compound, the “MIC against 26 metallo-carbapenemase-producing strains MIC50” value ([4]; 26 metallo-carbapenemase-producing P. aeruginosa strains, β-lactamase inhibitor µg/mL in parentheses) was 16 µg(mL), the “MIC against 96 strains of P. aeruginosa MIC50” value ([4]; 96 strains of P. aeruginosa, β-lactamase inhibitor µg/mL in parentheses) was 16 µg(mL) and the MIC ([4]; P. aeruginosa KUB No. 579, AR Bank # 447) was 4 µg/mL (≈ 9.19 µM). It also gave an MIC ([4]; P. aeruginosa KUB No. 5551, AR Bank # 54) of 32 µg/mL (≈ 73.5 µM), an MIC ([4]; P. aeruginosa KUB No. 5561, AR Bank # 64) of 16 µg/mL (≈ 36.7 µM) and an MIC ([4]; P. aeruginosa KUB No. 5592, AR Bank # 95) of 16 µg/mL (≈ 36.7 µM). It also gave an MIC ([4]; P. aeruginosa KUB No. 5597, AR Bank # 100) of 32 µg/mL (≈ 73.5 µM), an MIC ([4]; P. aeruginosa KUB No. 5600, AR Bank # 103) of 16 µg/mL (≈ 36.7 µM) and an MIC ([4]; P. aeruginosa KUB No. 5602, AR Bank # 105) of 32 µg/mL (≈ 73.5 µM). For the same compound, the MIC ([4]; P. aeruginosa KUB No. 5605, AR Bank # 108) was 8 µg/mL (≈ 18.4 µM), the MIC ([4]; P. aeruginosa KUB No. 5607, AR Bank # 110) was 4 µg/mL (≈ 9.19 µM) and the MIC ([4]; P. aeruginosa KUB No. 5608, AR Bank # 111) was 2 µg/mL (≈ 4.59 µM). For the same compound, the MIC ([4]; P. aeruginosa KUB No. 5663, AR Bank # 230) was 4 µg/mL (≈ 9.19 µM), the MIC ([4]; P. aeruginosa KUB No. 5665, AR Bank # 232) was 4 µg/mL (≈ 9.19 µM) and the MIC ([4]; P. aeruginosa KUB No. 5666, AR Bank # 23) was 16 µg/mL (≈ 36.7 µM). For the same compound, the MIC ([4]; P. aeruginosa KUB No. 5667, AR Bank # 234) was 2 µg/mL (≈ 4.59 µM), the MIC ([4]; P. aeruginosa KUB No. 5669, AR Bank # 236) was 2 µg/mL (≈ 4.59 µM) and the MIC ([4]; P. aeruginosa KUB No. 5670, AR Bank # 237) was 4 µg/mL (≈ 9.19 µM). The MIC ([4]; P. aeruginosa KUB No. 5671, AR Bank # 238) was 4 µg/mL (≈ 9.19 µM), the MIC ([4]; P. aeruginosa KUB No. 5672, AR Bank # 239) was 32 µg/mL (≈ 73.5 µM) and the MIC ([4]; P. aeruginosa KUB No. 5673, AR Bank # 240) was 32 µg/mL (≈ 73.5 µM). For the same compound, the MIC ([4]; P. aeruginosa KUB No. 5674, AR Bank # 241) was 32 µg/mL (≈ 73.5 µM), the MIC ([4]; P. aeruginosa KUB No. 5675, AR Bank # 242) was 4 µg/mL (≈ 9.19 µM) and the MIC ([4]; P. aeruginosa KUB No. 5676, AR Bank # 243) was 2 µg/mL (≈ 4.59 µM). The MIC ([4]; P. aeruginosa KUB No. 5677, AR Bank # 244) was 32 µg/mL (≈ 73.5 µM), the MIC ([4]; P. aeruginosa KUB No. 5678, AR Bank # 245) was 16 µg/mL (≈ 36.7 µM) and the MIC ([4]; P. aeruginosa KUB No. 5680, AR Bank # 247) was 4 µg/mL (≈ 9.19 µM). The MIC ([4]; P. aeruginosa KUB No. 5681, AR Bank # 248) was 4 µg/mL (≈ 9.19 µM), the MIC ([4]; P. aeruginosa KUB No. 5682, AR Bank # 249) was 32 µg/mL (≈ 73.5 µM) and the MIC ([4]; P. aeruginosa KUB No. 5684, AR Bank # 251) was 32 µg/mL (≈ 73.5 µM). For the same compound, the MIC ([4]; P. aeruginosa KUB No. 5685, AR Bank # 252) was 32 µg/mL (≈ 73.5 µM), the MIC ([4]; P. aeruginosa KUB No. 5686, AR Bank # 253) was 16 µg/mL (≈ 36.7 µM) and the MIC ([4]; P. aeruginosa KUB No. 5687, AR Bank # 254) was 4 µg/mL (≈ 9.19 µM). For the same compound, the MIC ([4]; P. aeruginosa KUB No. 5688, AR Bank # 255) was 8 µg/mL (≈ 18.4 µM), the MIC ([4]; P. aeruginosa KUB No. 5689, AR Bank # 256) was 4 µg/mL (≈ 9.19 µM) and the MIC ([4]; P. aeruginosa KUB No. 5690, AR Bank # 257) was 8 µg/mL (≈ 18.4 µM). For the same compound, the MIC ([4]; P. aeruginosa KUB No. 5691, AR Bank # 258) was 4 µg/mL (≈ 9.19 µM), the MIC ([4]; P. aeruginosa KUB No. 5692, AR Bank # 259) was 4 µg/mL (≈ 9.19 µM) and the MIC ([4]; P. aeruginosa KUB No. 5693, AR Bank # 260) was 8 µg/mL (≈ 18.4 µM). For the same compound, the MIC ([4]; P. aeruginosa KUB No. 5694, AR Bank # 261) was 4 µg/mL (≈ 9.19 µM), the MIC ([4]; P. aeruginosa KUB No. 5695, AR Bank # 262) was 16 µg/mL (≈ 36.7 µM) and the MIC ([4]; P. aeruginosa KUB No. 5696, AR Bank # 263) was 2 µg/mL (≈ 4.59 µM). The MIC ([4]; P. aeruginosa KUB No. 5697, AR Bank # 264) was 2 µg/mL (≈ 4.59 µM), the MIC ([4]; P. aeruginosa KUB No. 5698, AR Bank # 265) was 8 µg/mL (≈ 18.4 µM) and the MIC ([4]; P. aeruginosa KUB No. 5699, AR Bank # 266) was 4 µg/mL (≈ 9.19 µM). It also gave an MIC ([4]; P. aeruginosa KUB No. 5700, AR Bank # 267) of 4 µg/mL (≈ 9.19 µM), an MIC ([4]; P. aeruginosa KUB No. 5701, AR Bank # 268) of 32 µg/mL (≈ 73.5 µM) and an MIC ([4]; P. aeruginosa KUB No. 5702, AR Bank # 269) of 16 µg/mL (≈ 36.7 µM). For the same compound, the MIC ([4]; P. aeruginosa KUB No. 5703, AR Bank # 270) was 2 µg/mL (≈ 4.59 µM), the MIC ([4]; P. aeruginosa KUB No. 5704, AR Bank # 271) was 16 µg/mL (≈ 36.7 µM) and the MIC ([4]; P. aeruginosa KUB No. 5705, AR Bank # 272) was 4 µg/mL (≈ 9.19 µM). It also gave an MIC ([4]; P. aeruginosa KUB No. 5749, AR Bank # 353) of 8 µg/mL (≈ 18.4 µM), an MIC ([4]; P. aeruginosa KUB No. 5750, AR Bank # 354) of 16 µg/mL (≈ 36.7 µM) and an MIC ([4]; P. aeruginosa KUB No. 5754, AR Bank # 358) of 32 µg/mL (≈ 73.5 µM). It also gave an MIC ([4]; P. aeruginosa KUB No. 5755, AR Bank # 359) of 32 µg/mL (≈ 73.5 µM), an MIC ([4]; P. aeruginosa KUB No. 5756, AR Bank # 360) of 16 µg/mL (≈ 36.7 µM) and an MIC ([4]; P. aeruginosa KUB No. 5785, AR Bank # 439) of 4 µg/mL (≈ 9.19 µM). The MIC ([4]; P. aeruginosa KUB No. 5786, AR Bank # 440) was 32 µg/mL (≈ 73.5 µM), the MIC ([4]; P. aeruginosa KUB No. 5789, AR Bank # 444) was 8 µg/mL (≈ 18.4 µM) and the MIC ([4]; P. aeruginosa KUB No. 5800, AR Bank # 457) was 32 µg/mL (≈ 73.5 µM). For the same compound, the MIC ([4]; P. aeruginosa KUB No. 5805, AR Bank # 863) was 16 µg/mL (≈ 36.7 µM), the MIC ([4]; P. aeruginosa KUB No. 5813, AR Bank # 508) was greater than 0.064 µg/mL and the MIC ([4]; P. aeruginosa KUB No. 5814, AR Bank # 509) was 0.008 µg/mL (≈ 0.0184 µM). For the same compound, the MIC ([4]; P. aeruginosa KUB No. 5815, AR Bank # 510) was 0.0005 µg/mL (≈ 0.00115 µM), the MIC ([4]; P. aeruginosa KUB No. 5816, AR Bank # 511) was 0.004 µg/mL (≈ 0.00919 µM) and the MIC ([4]; P. aeruginosa KUB No. 5817, AR Bank # 512) was 0.032 µg/mL (≈ 0.0735 µM). The MIC ([4]; P. aeruginosa KUB No. 5818, AR Bank # 513) was 0.032 µg/mL (≈ 0.0735 µM), the MIC ([4]; P. aeruginosa KUB No. 5819, AR Bank # 514) was 0.004 µg/mL (≈ 0.00919 µM) and the MIC ([4]; P. aeruginosa KUB No. 5820, AR Bank # 515) was 0.032 µg/mL (≈ 0.0735 µM). The MIC ([4]; P. aeruginosa KUB No. 5821, AR Bank # 516) was greater than 0.064 µg/mL, the MIC ([4]; P. aeruginosa KUB No. 5823, AR Bank # 518) was greater than 0.064 µg/mL and the MIC ([4]; P. aeruginosa KUB No. 5831, AR Bank # 526) was 0.004 µg/mL (≈ 0.00919 µM). For the same compound, the MIC ([4]; P. aeruginosa KUB No. 5832, AR Bank # 527) was 0.032 µg/mL (≈ 0.0735 µM), the MIC ([4]; P. aeruginosa KUB No. 5834, AR Bank # 529) was 0.008 µg/mL (≈ 0.0184 µM) and the MIC [5] was 4 µg/mL (≈ 9.19 µM). For the same compound, the MIC ([6]; KUB3633 Klebsiella pneumoniae Clinical isolate) was 8 µg/mL (≈ 18.4 µM) and the MIC ([6]; KUB3634 Klebsiella pneumoniae Clinical isolate) was 16 µg/mL (≈ 36.7 µM).
